Assay [1] concerns Pseudomonas aeruginosa (PA), Proteus mirabilis (PM), and Staphylococcus aureus (SA). As to the kind of experiment: Microbial cell intactness: ΔCT by real-time RT-PCR, spiked whole blood samples. The format is cell-based. The following applies: 0.94% w/v detergent in type 3 reagent/blood mixture; all three species.
The test system is the same in assay [2]. As to the kind of experiment: Microbial cell intactness: ΔCT by real-time RT-PCR, spiked phosphate buffer samples. It is filed as cell-based. Conditions: Triton X-100 0-0.75% w/v with SPS 15 mg/mL, no high pH; all cell types. As for the experimental part:
The effect of Triton X-100, one of the components of the type 2 blood lysis reagent, on microbial cell intactness, was experimentally investigated in the absence of a high pH environment (e.g. in the absence of a carbonate-bicarbonate buffer). Experiments were performed by contacting spiked phosphate buffer samples containing Pseudomonas aeruginosa (PA), Proteus mirabilis (PM), and Staphylococcus aureus (SA), prepared according to Example 3 below, with solutions containing Triton X-100 and SPS, such that the final concentrations of Triton X-100 in the various samples were 0, 0.188, 0.375, 0.55 and 0.75% w/v, and the SPS concentration was 15 mg/mL. Sample preparation and real time RT-PCR was performed according to the methods provided in Example 5 below. Spiked phosphate buffer samples, prepared according to the method of Example 3 below, were also prepared for spiked control and subjected to real time RT-PCR according to the method of Example 4 below. The ΔCT value, determined based on the difference between the spiked phosphate buffer sample CT value and the spiked control CT value, was employed as a proxy for microbial cell intactness after exposure to Triton X-100.
Bacterial cell suspension stock of 50 μL, having about 10^3 CFU of respective bacterial cells was added to 5 mL of 1 mM Phosphate Buffer (PB) and mixed by gentle vortexing. […]

Bounds are passed on as bounds.

On to `CCCCCCCCCCCC(=O)OCCOCCOCCOCCOCCOCCOCCOCCOCCOCCOCCOCCOCCOCCOCCOCCOCCOCCOCCOCCOCC(OCCOCCOCCOCCOCCOCCOCCOCCOCCOCCOCCOCCOCCOCCOCCOCCOCCOCCOCCOCCO)C1OCC(OCCOCCOCCOCCOCCOCCOCCOCCOCCOCCOCCOCCOCCOCCOCCOCCOCCOCCOCCOCCO)C1OCCOCCOCCOCCOCCOCCOCCOCCOCCOCCOCCOCCOCCOCCOCCOCCOCCOCCOCCOCCO` (centres unmarked) [Tween 20, Polysorbate 20], for which the “ΔCT, Tween 20 compared with Triton X-100 as non-ionic detergent” value in assay [1] is given as “very similar”. Consider “polyethylene glycol p-(1,1,3,3-tetramethylbutyl)-phenyl ether [Triton X-100]”, for which the ΔCT in assay [2] is on record as at most 2.

For the origin of these results see patent publication US12253513B2, “Methods and compositions for the selective lysis of blood cells and separation of microbial cells” (QVELLA CORPORATION, priority 2018, dated 2025).
